System: 931267-113-T-J1-PDC multicell spheroid viability
Assay: Anticancer human tumor 931267-113-T-J1-PDC patient-derived colon adenocarcinoma cell line growth inhibition [PI3K]
Conditions: for IC50: curve of first compound; for viability, T/C: stronger effect = lower value; active = viability on the fitted dose curve at most 10% of control; inactive = the rest
Procedure, shortened: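 We assembled tumor spheroids that included a stromal compartment of HUVEC and MSCs, then exposed them to targeted agents alone and together with PI3K pathway inhibitors. Concentration series descended by half-log from clinically achievable Cmax levels. Viability served as the endpoint.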

[1] = second compound 0.0316 µM, first compound 0.0316 µM
[2] = second compound 0.0316 µM, first compound 0.1 µM
[3] = second compound 0.0316 µM, first compound 0.316 µM
[4] = second compound 0.0316 µM, first compound 1 µM
[5] = second compound 0.0316 µM, first compound 3.16 µM
[6] = second compound 0.0316 µM, first compound 10 µM
[7] = second compound 0.1 µM, first compound 0.0316 µM
[8] = second compound 0.1 µM, first compound 0.1 µM
[9] = second compound 0.1 µM, first compound 0.316 µM
[10] = second compound 0.1 µM, first compound 1 µM
[11] = second compound 0.1 µM, first compound 3.16 µM
[12] = second compound 0.1 µM, first compound 10 µM
[13] = second compound 0.316 µM, first compound 0.0316 µM
[14] = second compound 0.316 µM, first compound 0.1 µM
[15] = second compound 0.316 µM, first compound 0.316 µM
[16] = second compound 0.316 µM, first compound 1 µM
[17] = second compound 0.316 µM, first compound 3.16 µM
[18] = second compound 0.316 µM, first compound 10 µM
[19] = second compound 1 µM, first compound 0.0316 µM
[20] = second compound 1 µM, first compound 0.1 µM
[21] = second compound 1 µM, first compound 0.316 µM
[22] = second compound 1 µM, first compound 1 µM
[23] = second compound 1 µM, first compound 3.16 µM
[24] = second compound 1 µM, first compound 10 µM
[25] = second compound 3.16 µM, first compound 0.0316 µM
[26] = second compound 3.16 µM, first compound 0.1 µM
[27] = second compound 3.16 µM, first compound 0.316 µM
[28] = second compound 3.16 µM, first compound 1 µM
[29] = second compound 3.16 µM, first compound 3.16 µM
[30] = second compound 3.16 µM, first compound 10 µM
[31] = second compound 10 µM, first compound 0.0316 µM
[32] = second compound 10 µM, first compound 0.1 µM
[33] = second compound 10 µM, first compound 0.316 µM
[34] = second compound 10 µM, first compound 1 µM
[35] = second compound 10 µM, first compound 3.16 µM
[36] = second compound 10 µM, first compound 10 µM
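Also: viability read 7 days after compound addition.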

C#Cc1c(F)ccc2cc(O)cc(-c3ncc4c(N5CC6CCC(C5)N6)nc(OCC56CCCN5CC(F)C6)nc4c3F)c12 (stereo not drawn) + CC(Nc1ncnc2nc[nH]c12)c1cc2cccc(Cl)c2c(=O)n1-c1ccccc1
0.664 µM: IC50 (second compound 0.316 µM)
0.378 µM: IC50 (second compound 3.16 µM)
0.573 µM: IC50 (second compound 0.1 µM)
inactive: viability, T/C [1] 96.4% | viability, T/C [2] 74% | viability, T/C [3] 57.6% | viability, T/C [4] 45.7% | viability, T/C [5] 32.6% | viability, T/C [6] 22.5% | viability, T/C [7] 105% | viability, T/C [8] 78.1% | viability, T/C [9] 56.6% | viability, T/C [10] 45.4% | viability, T/C [11] 29.5% | viability, T/C [12] 24.5% | viability, T/C [13] 90.9% | viability, T/C [14] 72.9% | viability, T/C [15] 61.4% | viability, T/C [16] 43.4% | viability, T/C [17] 33.6% | viability, T/C [18] 23.2% | viability, T/C [19] 89.1% | viability, T/C [20] 78.6% | viability, T/C [21] 57.9% | viability, T/C [22] 42.1% | viability, T/C [23] 37.3% | viability, T/C [24] 21.2% | viability, T/C [25] 87.3% | viability, T/C [26] 70.3% | viability, T/C [27] 52.1% | viability, T/C [28] 36.1% | viability, T/C [29] 28.4% | viability, T/C [30] 17.6% | viability, T/C [31] 91.1% | viability, T/C [32] 63.1% | viability, T/C [33] 45% | viability, T/C [34] 27.1% | viability, T/C [35] 22.7% | viability, T/C [36] 12%
0.677 µM: IC50 (second compound 1 µM)
0.222 µM: IC50 (second compound 10 µM)
0.631 µM: IC50 (second compound 0.0316 µM)

C=CC(=O)N1CCN(c2nc(=O)n(-c3c(C)ccnc3C(C)C)c3nc(-c4c(O)cccc4F)c(F)cc23)C(C)C1 (stereo not drawn) + CC(Nc1ncnc2nc[nH]c12)c1cc2cccc(Cl)c2c(=O)n1-c1ccccc1
> 10 µM: IC50 (second compound 0.0316 µM) | IC50 (second compound 0.1 µM) | IC50 (second compound 0.316 µM) | IC50 (second compound 1 µM) | IC50 (second compound 3.16 µM) | IC50 (second compound 10 µM)
inactive: viability, T/C [1] 97.5% | viability, T/C [2] 103% | viability, T/C [3] 96.6% | viability, T/C [4] 111% | viability, T/C [5] 107% | viability, T/C [6] 107% | viability, T/C [7] 110% | viability, T/C [8] 113% | viability, T/C [9] 107% | viability, T/C [10] 111% | viability, T/C [11] 117% | viability, T/C [12] 94.2% | viability, T/C [13] 112% | viability, T/C [14] 109% | viability, T/C [15] 116% | viability, T/C [16] 107% | viability, T/C [17] 114% | viability, T/C [18] 96.5% | viability, T/C [19] 108% | viability, T/C [20] 109% | viability, T/C [21] 99.5% | viability, T/C [22] 105% | viability, T/C [23] 111% | viability, T/C [24] 88.3% | viability, T/C [25] 104% | viability, T/C [26] 101% | viability, T/C [27] 93.5% | viability, T/C [28] 99.9% | viability, T/C [29] 107% | viability, T/C [30] 87% | viability, T/C [31] 94.9% | viability, T/C [32] 96.8% | viability, T/C [33] 107% | viability, T/C [34] 98.1% | viability, T/C [35] 106% | viability, T/C [36] 102%

CC(Cn1ccc(-c2ccc(C#N)c(Cl)c2)n1)NC(=O)c1cc(C(C)O)[nH]n1 (stereo not drawn) + CC(Nc1ncnc2nc[nH]c12)c1cc2cccc(Cl)c2c(=O)n1-c1ccccc1
> 10 µM: IC50 (second compound 0.0316 µM) | IC50 (second compound 0.1 µM) | IC50 (second compound 0.316 µM) | IC50 (second compound 1 µM) | IC50 (second compound 3.16 µM) | IC50 (second compound 10 µM)
inactive: viability, T/C [1] 104% | viability, T/C [2] 110% | viability, T/C [3] 106% | viability, T/C [4] 105% | viability, T/C [5] 116% | viability, T/C [6] 96.7% | viability, T/C [7] 114% | viability, T/C [8] 101% | viability, T/C [9] 102% | viability, T/C [10] 108% | viability, T/C [11] 102% | viability, T/C [12] 103% | viability, T/C [13] 111% | viability, T/C [14] 107% | viability, T/C [15] 104% | viability, T/C [16] 107% | viability, T/C [17] 105% | viability, T/C [18] 101% | viability, T/C [19] 113% | viability, T/C [20] 110% | viability, T/C [21] 102% | viability, T/C [22] 118% | viability, T/C [23] 107% | viability, T/C [24] 102% | viability, T/C [25] 103% | viability, T/C [26] 98.5% | viability, T/C [27] 87% | viability, T/C [28] 99.6% | viability, T/C [29] 101% | viability, T/C [30] 94.7% | viability, T/C [31] 88% | viability, T/C [32] 94.8% | viability, T/C [33] 99.4% | viability, T/C [34] 95.8% | viability, T/C [35] 92.5% | viability, T/C [36] 87.8%

CC1(C)CCC(Nc2ncc(C(F)(F)F)c(-c3c[nH]c4c(P(C)(C)=O)c(C#N)ccc34)n2)CN1 (stereo not drawn) + CC(Nc1ncnc2nc[nH]c12)c1cc2cccc(Cl)c2c(=O)n1-c1ccccc1
inactive: viability, T/C [1] 107% | viability, T/C [2] 105% | viability, T/C [3] 97% | viability, T/C [4] 88.5% | viability, T/C [5] 90.8% | viability, T/C [6] 74.1% | viability, T/C [7] 114% | viability, T/C [8] 105% | viability, T/C [9] 93.6% | viability, T/C [10] 93.1% | viability, T/C [11] 91.5% | viability, T/C [12] 81.6% | viability, T/C [13] 104% | viability, T/C [14] 104% | viability, T/C [15] 103% | viability, T/C [16] 92.8% | viability, T/C [17] 95.1% | viability, T/C [18] 67.4% | viability, T/C [19] 106% | viability, T/C [20] 100% | viability, T/C [21] 94.6% | viability, T/C [22] 82.7% | viability, T/C [23] 96.5% | viability, T/C [24] 69.5% | viability, T/C [25] 106% | viability, T/C [26] 100% | viability, T/C [27] 89.4% | viability, T/C [28] 87% | viability, T/C [29] 82.6% | viability, T/C [30] 69.5% | viability, T/C [31] 92.2% | viability, T/C [32] 97% | viability, T/C [33] 80.1% | viability, T/C [34] 82.5% | viability, T/C [35] 83.1% | viability, T/C [36] 56.2%
> 10 µM: IC50 (second compound 0.0316 µM) | IC50 (second compound 0.1 µM) | IC50 (second compound 0.316 µM) | IC50 (second compound 1 µM) | IC50 (second compound 3.16 µM) | IC50 (second compound 10 µM)

From PubChem BioAssay AID1963970 (Molecular Pharmacology Branch, DTP, NCI, 2024)
